The term Ki denotes the equilibrium dissociation constant of an inhibitor or competing ligand from its target. Higher therefore signals lower affinity.

Among the data in ChEMBL document CHEMBL1149199 (Bioorg Med Chem Lett, 2004) are Ki values, retold here.

The structures appear in SMILES notation.

Experiment [1] has as its target T1, Sodium-dependent serotonin transporter (Homo sapiens, UniProt P31645).
Description: Ability to inhibit [3H]paroxetine binding to cloned human serotonin (5-HT) transporter
Experiment [2] addresses T2, Sodium-dependent noradrenaline transporter (Homo sapiens, UniProt P23975).
Experiment [3] has as its target T3, Sodium-dependent dopamine transporter (Homo sapiens, UniProt Q01959). As to the kind of experiment: Ability to inhibit [3H]mazindol binding to cloned human dopamine (DA) transporter.
In experiment [4] the target is T1, Sodium-dependent serotonin transporter. The source holds these as a separate data set.
Description: Ability to inhibit [3H]paroxetine binding to cloned human serotonin (5-HT) transporter; Average of two experiments
Experiment [5] deals with T2, Sodium-dependent noradrenaline transporter. As to the kind of experiment: Ability to inhibit [3H]nisoxetine binding to cloned human norepinephrine (NE) transporter; Average of two experiments.
In experiment [6] the target is T3, Sodium-dependent dopamine transporter.
Description: Ability to inhibit [3H]mazindol binding to cloned human dopamine (DA) transporter; Average of two experiments

T2 sequence (P23975 whole entry): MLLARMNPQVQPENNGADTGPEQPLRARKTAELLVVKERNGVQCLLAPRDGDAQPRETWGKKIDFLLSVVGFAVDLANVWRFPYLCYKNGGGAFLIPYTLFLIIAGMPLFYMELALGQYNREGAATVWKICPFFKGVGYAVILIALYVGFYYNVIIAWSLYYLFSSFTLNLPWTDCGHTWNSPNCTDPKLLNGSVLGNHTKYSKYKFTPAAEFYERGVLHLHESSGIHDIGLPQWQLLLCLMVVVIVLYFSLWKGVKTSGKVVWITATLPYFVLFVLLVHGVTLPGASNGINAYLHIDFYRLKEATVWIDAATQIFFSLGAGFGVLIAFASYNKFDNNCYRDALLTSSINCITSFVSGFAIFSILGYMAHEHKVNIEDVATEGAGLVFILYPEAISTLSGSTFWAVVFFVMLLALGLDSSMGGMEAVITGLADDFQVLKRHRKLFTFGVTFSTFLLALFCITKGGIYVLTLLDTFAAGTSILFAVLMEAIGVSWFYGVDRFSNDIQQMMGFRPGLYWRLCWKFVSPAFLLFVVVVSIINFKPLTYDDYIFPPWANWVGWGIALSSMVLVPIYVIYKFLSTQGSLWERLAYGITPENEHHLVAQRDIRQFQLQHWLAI
T3 sequence (Q01959 whole entry): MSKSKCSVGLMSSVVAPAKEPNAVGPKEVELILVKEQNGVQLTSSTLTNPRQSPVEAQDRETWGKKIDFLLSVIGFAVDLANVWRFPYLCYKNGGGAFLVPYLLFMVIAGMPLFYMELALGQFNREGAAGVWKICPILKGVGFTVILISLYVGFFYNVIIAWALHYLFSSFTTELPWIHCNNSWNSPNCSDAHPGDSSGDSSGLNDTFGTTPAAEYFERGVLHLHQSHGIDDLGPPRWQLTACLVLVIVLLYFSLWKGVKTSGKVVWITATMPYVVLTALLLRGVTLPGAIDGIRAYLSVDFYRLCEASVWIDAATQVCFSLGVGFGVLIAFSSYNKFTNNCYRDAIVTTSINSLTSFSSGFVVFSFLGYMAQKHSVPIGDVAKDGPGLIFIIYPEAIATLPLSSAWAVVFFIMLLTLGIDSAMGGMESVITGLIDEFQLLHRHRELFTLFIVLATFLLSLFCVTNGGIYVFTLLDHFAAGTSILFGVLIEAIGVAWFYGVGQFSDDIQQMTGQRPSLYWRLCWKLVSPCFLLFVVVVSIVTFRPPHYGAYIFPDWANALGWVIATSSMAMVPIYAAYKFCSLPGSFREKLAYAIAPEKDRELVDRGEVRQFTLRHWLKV
T1 sequence (P31645 whole entry): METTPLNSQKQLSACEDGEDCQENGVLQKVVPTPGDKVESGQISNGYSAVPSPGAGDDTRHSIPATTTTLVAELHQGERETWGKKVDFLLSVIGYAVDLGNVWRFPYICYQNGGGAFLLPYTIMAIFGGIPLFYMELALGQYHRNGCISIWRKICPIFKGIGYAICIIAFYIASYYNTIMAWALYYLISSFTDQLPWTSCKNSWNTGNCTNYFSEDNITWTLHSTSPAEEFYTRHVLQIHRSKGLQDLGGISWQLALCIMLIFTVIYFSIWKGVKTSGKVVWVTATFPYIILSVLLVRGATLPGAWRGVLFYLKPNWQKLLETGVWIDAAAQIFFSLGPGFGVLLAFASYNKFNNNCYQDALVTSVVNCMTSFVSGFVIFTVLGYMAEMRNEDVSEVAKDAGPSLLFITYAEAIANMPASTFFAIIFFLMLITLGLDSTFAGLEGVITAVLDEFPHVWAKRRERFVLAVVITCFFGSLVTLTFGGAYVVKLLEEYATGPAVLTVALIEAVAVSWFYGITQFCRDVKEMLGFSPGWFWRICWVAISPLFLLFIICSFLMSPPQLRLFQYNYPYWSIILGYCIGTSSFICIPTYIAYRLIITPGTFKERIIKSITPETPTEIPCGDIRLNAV

Turning to `CNCC[C@H](Oc1cccc2c(OS(=O)(=O)O)c(OC)ccc12)c1cccs1`, the Ki is 3120 nM in experiment [1], more than 10000 nM in experiment [2] and more than 10000 nM in experiment [3].
Regarding `CNCC[C@H](Oc1cccc2c(OC)c(O)ccc12)c1cccs1`, the Ki in experiment [4] came out at 3.66 nM; in experiment [5], 235 nM; in experiment [6], 353 nM.
In the case of `CNCC[C@H](Oc1ccc(O[C@@H]2O[C@H](C(=O)O)[C@@H](O)[C@H](O)[C@H]2O)c2ccccc12)c1cccs1`, the Ki is more than 10000 nM in experiment [1], more than 10000 nM in experiment [2] and 3510 nM in experiment [3].
As to `CNCC[C@H](Oc1cccc2c(O[C@@H]3O[C@H](C(=O)O)[C@@H](O)[C@H](O)[C@H]3O)c(OC)ccc12)c1cccs1`, the Ki in experiment [1], in experiment [2] and in experiment [3] was more than 10000 nM throughout.
As to `CNCC[C@H](Oc1cccc2c(O)c(O)ccc12)c1cccs1` (stereo in doubt; form 2), the Ki came out at 120 nM in experiment [1], 695 nM in experiment [2] and 7270 nM in experiment [3].
As for `CNCC[C@H](Oc1cccc2cc(O)ccc12)c1cccs1`, the Ki worked out at 1.06 nM in experiment [4], 4.72 nM in experiment [5] and 163 nM in experiment [6].
In the case of `CNCC[C@H](Oc1cccc2c(O)c(O)ccc12)c1cccs1` (stereo in doubt; form 1), the Ki in experiment [1] is 31.7 nM; in experiment [2], 554 nM; in experiment [3], more than 10000 nM.
As to `CNCC[C@H](Oc1cccc2c(O)cccc12)c1cccs1`, the results for the Ki in experiment [4], in experiment [5] and in experiment [6] were 9.6 nM, 18.4 nM and 241 nM, respectively.
`CNCC[C@H](Oc1cccc2c(O[C@@H]3O[C@H](C(=O)O)[C@@H](O)[C@H](O)[C@H]3O)c(O[C@@H]3O[C@H](C(=O)O)[C@@H](O)[C@H](O)[C@H]3O)ccc12)c1cccs1`: the Ki in experiment [1], in experiment [2] and in experiment [3] was more than 10000 nM throughout.
With `CNCC[C@H](Oc1ccc(O)c2ccccc12)c1cccs1`, the Ki in experiment [4] worked out at 63.9 nM; in experiment [5] it was 97.1 nM; in experiment [6], 130 nM.
Take `CNCC[C@H](Oc1cccc2cc(O[C@@H]3O[C@H](C(=O)O)[C@@H](O)[C@H](O)[C@H]3O)ccc12)c1cccs1`: the Ki is 1460 nM in experiment [1], 5450 nM in experiment [2] and more than 10000 nM in experiment [3].
`CNCC[C@H](Oc1cccc2c(O)c(OC)ccc12)c1cccs1`: the Ki turned out to be 266 nM in experiment [1], 920 nM in experiment [2] and 2810 nM in experiment [3].
